Consider four compounds from PubChem BioAssay (NCI).

Structures are written as SMILES.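 Following 48 hours of exposure in 96-well plates, responses at five concentrations were used to interpolate endpoints linearly. At the TGI there is no net growth.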

One experiment has as its system TK-10 renal. The experiment can be described thus: NCI-60 cell line screen, 48 h.
`O=[N+]([O-])c1cccc2nnccc12` displayed a TGI greater than 100 µM.

Compound `Cn1c(=O)c2c(nc3n2CC(=O)N3CCCCl)n(C)c1=O` came in with a TGI greater than 100 µM.

Consider `C[n+]1ccc(/C2=C3\C=CC(=N3)/C(c3cc[n+](C)cc3)=c3/cc/c([nH]3)=C(\c3cc[n+](C)cc3)C3=N/C(=C(/c4cc[n+](C)cc4)C4C=CC2N4)C=C3)cc1`, for which the TGI was greater than 100 µM.

In the case of `CCCCn1c(N)c(-c2nc3ccccc3o2)sc1=S`, the TGI stood at 39.3 µM.

A further experiment concerns CCRF-CEM leukemia. The experiment can be described thus: NCI-60 cell line screen, 48 h.
For the compound `Cn1c(=O)c2c(nc3n2CC(=O)N3CCCCl)n(C)c1=O`, the TGI was greater than 100 µM.

On to `C[n+]1ccc(/C2=C3\C=CC(=N3)/C(c3cc[n+](C)cc3)=c3/cc/c([nH]3)=C(\c3cc[n+](C)cc3)C3=N/C(=C(/c4cc[n+](C)cc4)C4C=CC2N4)C=C3)cc1`, for which the TGI was greater than 100 µM.

`CCCCn1c(N)c(-c2nc3ccccc3o2)sc1=S` came in with a TGI greater than 100 µM.

A further experiment deals with COLO 205 colon. In words: NCI-60 cell line screen, 48 h.
In turn, `O=[N+]([O-])c1cccc2nnccc12` had a TGI of 34.1 µM.

`Cn1c(=O)c2c(nc3n2CC(=O)N3CCCCl)n(C)c1=O` had a TGI greater than 100 µM.

For `C[n+]1ccc(/C2=C3\C=CC(=N3)/C(c3cc[n+](C)cc3)=c3/cc/c([nH]3)=C(\c3cc[n+](C)cc3)C3=N/C(=C(/c4cc[n+](C)cc4)C4C=CC2N4)C=C3)cc1`, the TGI was greater than 100 µM.

`CCCCn1c(N)c(-c2nc3ccccc3o2)sc1=S`: the TGI is greater than 100 µM.

In the next experiment the test system is CAKI-1 renal. In words: NCI-60 cell line screen, 48 h.
`O=[N+]([O-])c1cccc2nnccc12`: the TGI was determined as 90.6 µM.

For the compound `Cn1c(=O)c2c(nc3n2CC(=O)N3CCCCl)n(C)c1=O`, the TGI is greater than 100 µM.

`C[n+]1ccc(/C2=C3\C=CC(=N3)/C(c3cc[n+](C)cc3)=c3/cc/c([nH]3)=C(\c3cc[n+](C)cc3)C3=N/C(=C(/c4cc[n+](C)cc4)C4C=CC2N4)C=C3)cc1` registered a TGI greater than 100 µM.

`CCCCn1c(N)c(-c2nc3ccccc3o2)sc1=S` gave a TGI of 41 µM.

Another experiment relates to HS 578T breast. In words: NCI-60 cell line screen, 48 h.
`O=[N+]([O-])c1cccc2nnccc12`: the TGI is greater than 100 µM.

Compound `Cn1c(=O)c2c(nc3n2CC(=O)N3CCCCl)n(C)c1=O` had a TGI greater than 100 µM.

In turn, `C[n+]1ccc(/C2=C3\C=CC(=N3)/C(c3cc[n+](C)cc3)=c3/cc/c([nH]3)=C(\c3cc[n+](C)cc3)C3=N/C(=C(/c4cc[n+](C)cc4)C4C=CC2N4)C=C3)cc1` displayed a TGI greater than 100 µM.

For `CCCCn1c(N)c(-c2nc3ccccc3o2)sc1=S`, the TGI amounted to 77.6 µM.

A further experiment has as its system SF-539 CNS. In words: NCI-60 cell line screen, 48 h.
`O=[N+]([O-])c1cccc2nnccc12` showed a TGI greater than 100 µM.

As for `C[n+]1ccc(/C2=C3\C=CC(=N3)/C(c3cc[n+](C)cc3)=c3/cc/c([nH]3)=C(\c3cc[n+](C)cc3)C3=N/C(=C(/c4cc[n+](C)cc4)C4C=CC2N4)C=C3)cc1`, the TGI is greater than 100 µM.

Take `CCCCn1c(N)c(-c2nc3ccccc3o2)sc1=S`: the TGI amounted to 23.2 µM.

For another experiment, the system named is MDA-N. In words: NCI-60 cell line screen, 48 h.
`O=[N+]([O-])c1cccc2nnccc12` displayed a TGI of 34.5 µM.

As to `Cn1c(=O)c2c(nc3n2CC(=O)N3CCCCl)n(C)c1=O`, the TGI is greater than 100 µM.

`C[n+]1ccc(/C2=C3\C=CC(=N3)/C(c3cc[n+](C)cc3)=c3/cc/c([nH]3)=C(\c3cc[n+](C)cc3)C3=N/C(=C(/c4cc[n+](C)cc4)C4C=CC2N4)C=C3)cc1` came in with a TGI greater than 100 µM.

`CCCCn1c(N)c(-c2nc3ccccc3o2)sc1=S` yielded a TGI of 69.1 µM.

The subject of a further experiment is U251 CNS. The experiment can be described thus: NCI-60 cell line screen, 48 h.
Consider `O=[N+]([O-])c1cccc2nnccc12`, for which the TGI was greater than 100 µM.

On to `Cn1c(=O)c2c(nc3n2CC(=O)N3CCCCl)n(C)c1=O`, for which the TGI is greater than 100 µM.

Compound `C[n+]1ccc(/C2=C3\C=CC(=N3)/C(c3cc[n+](C)cc3)=c3/cc/c([nH]3)=C(\c3cc[n+](C)cc3)C3=N/C(=C(/c4cc[n+](C)cc4)C4C=CC2N4)C=C3)cc1` had a TGI greater than 32.2 µM.

As to `CCCCn1c(N)c(-c2nc3ccccc3o2)sc1=S`, the TGI was 33 µM.

The test system of a further experiment is HOP-92 NSCLC. The experiment can be described thus: NCI-60 cell line screen, 48 h.
The compound `O=[N+]([O-])c1cccc2nnccc12` gave a TGI of 71.4 µM.

`Cn1c(=O)c2c(nc3n2CC(=O)N3CCCCl)n(C)c1=O`: the TGI was greater than 100 µM.

For `C[n+]1ccc(/C2=C3\C=CC(=N3)/C(c3cc[n+](C)cc3)=c3/cc/c([nH]3)=C(\c3cc[n+](C)cc3)C3=N/C(=C(/c4cc[n+](C)cc4)C4C=CC2N4)C=C3)cc1`, the TGI is greater than 100 µM.

`CCCCn1c(N)c(-c2nc3ccccc3o2)sc1=S`: the TGI is greater than 100 µM.

Another experiment relates to UACC-257 melanoma. In words: NCI-60 cell line screen, 48 h.
On to `O=[N+]([O-])c1cccc2nnccc12`, for which the TGI is 39.9 µM.

`Cn1c(=O)c2c(nc3n2CC(=O)N3CCCCl)n(C)c1=O` displayed a TGI greater than 100 µM.

In the case of `C[n+]1ccc(/C2=C3\C=CC(=N3)/C(c3cc[n+](C)cc3)=c3/cc/c([nH]3)=C(\c3cc[n+](C)cc3)C3=N/C(=C(/c4cc[n+](C)cc4)C4C=CC2N4)C=C3)cc1`, the TGI is greater than 100 µM.

In turn, `CCCCn1c(N)c(-c2nc3ccccc3o2)sc1=S` registered a TGI greater than 100 µM.

Another experiment deals with NCI-H226 lung. The experiment can be described thus: NCI-60 cell line screen, 48 h.
As for `O=[N+]([O-])c1cccc2nnccc12`, the TGI was 58 µM.

Turning to `Cn1c(=O)c2c(nc3n2CC(=O)N3CCCCl)n(C)c1=O`, the TGI was greater than 100 µM.

Turning to `C[n+]1ccc(/C2=C3\C=CC(=N3)/C(c3cc[n+](C)cc3)=c3/cc/c([nH]3)=C(\c3cc[n+](C)cc3)C3=N/C(=C(/c4cc[n+](C)cc4)C4C=CC2N4)C=C3)cc1`, the TGI is greater than 100 µM.

`CCCCn1c(N)c(-c2nc3ccccc3o2)sc1=S` showed a TGI of 43.1 µM.

For another experiment, the system named is 786-0 renal. In words: NCI-60 cell line screen, 48 h.
Regarding `O=[N+]([O-])c1cccc2nnccc12`, the TGI worked out at 50.4 µM.

In the case of `Cn1c(=O)c2c(nc3n2CC(=O)N3CCCCl)n(C)c1=O`, the TGI is greater than 100 µM.

`C[n+]1ccc(/C2=C3\C=CC(=N3)/C(c3cc[n+](C)cc3)=c3/cc/c([nH]3)=C(\c3cc[n+](C)cc3)C3=N/C(=C(/c4cc[n+](C)cc4)C4C=CC2N4)C=C3)cc1` registered a TGI greater than 100 µM.

Compound `CCCCn1c(N)c(-c2nc3ccccc3o2)sc1=S` had a TGI of 33 µM.

The next experiment deals with SK-MEL-28 melanoma. The experiment can be described thus: NCI-60 cell line screen, 48 h.
For the compound `Cn1c(=O)c2c(nc3n2CC(=O)N3CCCCl)n(C)c1=O`, the TGI is greater than 100 µM.

Take `C[n+]1ccc(/C2=C3\C=CC(=N3)/C(c3cc[n+](C)cc3)=c3/cc/c([nH]3)=C(\c3cc[n+](C)cc3)C3=N/C(=C(/c4cc[n+](C)cc4)C4C=CC2N4)C=C3)cc1`: the TGI is greater than 100 µM.

The compound `CCCCn1c(N)c(-c2nc3ccccc3o2)sc1=S` came in with a TGI of 52.7 µM.

Another experiment relates to NCI-H522 lung. The experiment can be described thus: NCI-60 cell line screen, 48 h.
Consider `O=[N+]([O-])c1cccc2nnccc12`, for which the TGI is 20.6 µM.

Consider `C[n+]1ccc(/C2=C3\C=CC(=N3)/C(c3cc[n+](C)cc3)=c3/cc/c([nH]3)=C(\c3cc[n+](C)cc3)C3=N/C(=C(/c4cc[n+](C)cc4)C4C=CC2N4)C=C3)cc1`, for which the TGI is greater than 100 µM.

With `CCCCn1c(N)c(-c2nc3ccccc3o2)sc1=S`, the TGI is 31.5 µM.

The test system of a further experiment is NCI/ADR-RES ovarian. In words: NCI-60 cell line screen, 48 h.
In the case of `O=[N+]([O-])c1cccc2nnccc12`, the TGI is greater than 100 µM.

`Cn1c(=O)c2c(nc3n2CC(=O)N3CCCCl)n(C)c1=O` registered a TGI greater than 100 µM.
